Results reported in US8337851B2, “Methods of monitoring the efficacy of anti-CD40 antibodies in treating a subject for a CD40-expressing cancer” (Novartis AG, priority 2005, dated 2012).
Entries after “also recorded” stand apart in the source; their conditions may differ.

Columns and labels:
CLL cells = assay: CD40L-induced cytokine secretion by CLL cells (Meso Scale Discovery); assay type: cell-based, human; conditions: CLL #1; 10 μg/ml, 24 hours; preliminary, n=1
Experimental: (§1) Cells (1×10^5 cells per well) were cultured in a 96-well plate in the presence or absence of CD40L (CD40 transfected, formaldehyde fixed CHO cells, 2×10^5 per well). […] Production of hIL-6, hIL-8, hIL-10, hTNF-α, hGM-CSF, hIL-1b, hIL-12p70, MCP-1, and MIP-1β was measured by Meso Scale Discovery® multi-array system (Meso Scale Discovery, Gaithersburg, Md.).

normal B cells [1] = assay: CD40L-induced cytokine secretion from normal B cells (Meso Scale Discovery); assay type: cell-based, human; conditions: 10 μg/ml, 24 hours
Experimental: as §1

normal human B cells = assay: Western blot of survival and signaling markers in normal human B cells; assay type: cell-based; conditions: 10 μg/ml, 24 hr, 2 μg/ml rhsCD40L, vs hIgG1
Source text: Cells were lysed and whole cell lysates resolved by SDS-PAGE and Western blotting using antibodies specific to human cPARP, Mcl-1, Bcl-xl, p-Akt, and p-p38 MAPK. All membranes were stripped and re-probed for either β-actin or AKT or p38 MAPK total protein, as appropriate.

B-CLL cells [2] = assay: CellTiter-Glo viability of CLL patient PBMCs; assay type: cell-based, human; conditions: 72 hours, 10 μg/ml
Experimental: Cell viability was determined after 72 hours using the CellTiter-Glo® Luminescent Cell Viability Kit (Promega, Madison, Wis.), which measures cellular ATP, and expressed as Relative Luminescence Units (RLU). Percent blockade was calculated as follows: […]

[3] = tested on: B-CLL cells from patients; assay: Western blot of CD40L-mediated signaling (p-IKK α/β, p-ERK, p-Akt, p-p38) in B-CLL cells; assay type: cell-based, human; conditions: 10 μg/ml
Experimental: In these experiments, 1.0×10^6 B-CLL cells from patients were stimulated with 1 μg/ml sCD40L (Alexis Corporation, Bingham, Nottinghamshire, UK). […] Cells were collected at 0 and 20 minutes. Phosphorylated IKKα (Ser180) and IKK β (Ser 181) (p-IKK α/β; NFkB pathway), phosphorylated ERK (p-ERK), phosphorylated Akt (p-Akt), and phosphorylated p38 MAPK (p-p38) were detected in cell lysates by Western blot.

[4] = tested on: IM-9 tumor cells (a human multiple myeloma cell line); assay: IM-9 multiple myeloma subcutaneous xenograft model; assay type: in vivo, SCID mice
Experimental: SCID mice were inoculated subcutaneously with IM-9 tumor cells (a human multiple myeloma cell line expressing both CD40 and CD20) in 50% […]™ at 5×10^6 cells per mouse. […] Alternatively, bortezomib dosing at 1 mg/kg intravenously occurred on days 5, 8, 12, and 15 after tumor implantation. […] Antibody dosing occurred on days 8, 14, and 21 post tumor implantation, while bortezomib dosing occurred on days 8, 11, 14 and 18 post tumor implantation. […] Data were analyzed using the log-rank test.

[5] = tested on: cancer cells from NHL and CLL patients; assay: In vitro CD40 ligand-mediated proliferation of patient cancer cells; assay type: cell-based, human
Source text: (§2) 4, 2003, Nov. 26, 2003, and Apr. 27, 2004, and assigned U.S. Patent Application Nos. 60/517,337, 60/525,579, and 60/565,710, respectively, and International Patent Application No. PCT/US2004/037152, also entitled “Antagonist, Anti-CD40 Monoclonal Antibodies and Methods for Their Use,” filed Nov. 4, 2004; the contents of each of which are herein incorporated by reference in their entirety.

B-CLL cells [6] = assay: Western blot of p-Akt, p-p38 MAPK, p-IKK α/β, p-ERK in B-CLL cells; assay type: cell-based, human
Experimental: To detect p38 MAPK, cells were cultured for 3 hr using the previously described conditions, with rhsCD40L being added in the last 20 min of incubation. Cells were processed as described above for data shown in FIG. 25. mAbs specific to human p-Akt and p-p38 MAPK were used to probe the resultant membranes, which were re-probed for AKT and p38 total protein, respectively.
Resultant membranes were probed using mAbs specific to human p-IKK α/β and p-ERK.

soluble CD40 = soluble CD40 (Homo sapiens, UniProt P25942); assay: ELISA-type binding to soluble CD40; conditions: ELISA-type assays
Source text: (§3) 2, 2000, and PCT International Application No. PCT/US01/30857, also titled “Human Anti-CD40 Antibodies,” filed Oct. 2, 2001, both of which are herein incorporated by reference in their entirety.

KMS-12-BM tumor = assay: Human KMS-12-BM subcutaneous xenograft model; assay type: in vivo, SCID mice; conditions: 42 days post cell implantation
Experimental: Female SCID mice were treated with 3Gy irradiation one day prior to implantation of tumor cells. On the day of implantation, cells were prepared at a concentration of 5×10^7 cells/ml in 50% matrigel. Cells were implanted subcutaneously over the right flank at 5×10^6 cells/100 μl/mouse. […] Antibodies were administered intraperitoneally once a week for 4 weeks. Bortezomib was administered intravenously twice a week for two weeks.

normal B cells [7] = assay: CD40L-induced production of VEGF in normal B cells; assay type: cell-based, human
Source text: In another experiment, CD40L-induced production of VEGF in normal B cells and CLL cells obtained from patients with CLL is examined in a manner similar to that described above.

cell-surface CD40 = cell-surface CD40 (Homo sapiens, UniProt P25942); assay: Flow cytometric CD40-ligand binding blockade and displacement; conditions: flow cytometric assays / FACS
Source text: as §3, §2

[8] = 3 hr culture, rhsCD40L in the last 20 min

Chain of cell-surface CD40 (P25942 21-277): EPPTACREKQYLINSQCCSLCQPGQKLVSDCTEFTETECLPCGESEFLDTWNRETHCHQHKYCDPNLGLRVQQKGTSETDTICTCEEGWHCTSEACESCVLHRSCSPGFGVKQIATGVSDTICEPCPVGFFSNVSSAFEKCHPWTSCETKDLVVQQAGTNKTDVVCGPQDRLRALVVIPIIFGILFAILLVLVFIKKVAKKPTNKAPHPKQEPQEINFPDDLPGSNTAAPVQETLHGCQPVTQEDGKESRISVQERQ
Chain of soluble CD40 (P25942 21-193 limits assumed): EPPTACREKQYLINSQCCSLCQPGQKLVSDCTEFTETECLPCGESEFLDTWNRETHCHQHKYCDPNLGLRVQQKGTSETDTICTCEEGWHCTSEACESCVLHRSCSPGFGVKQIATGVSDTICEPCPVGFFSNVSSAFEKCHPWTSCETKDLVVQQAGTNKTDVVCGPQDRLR

With “CHIR-12.12: fully human anti-CD40 monoclonal antibody of the IgG1 isotype from hybridoma cell line 153.8E2.D10.D6.12.12 (ATCC PTA-5543)” the “inhibition of CD40-ligand-induced MCP-1 secretion” value (CLL cells) was 34.8 % inhibition, the “inhibition of CD40-ligand-induced hGM-CSF secretion” value (CLL cells) was 86.5 % inhibition and the “inhibition of CD40-ligand-induced hIL-8 secretion” value (CLL cells) was 91.0 % inhibition. The “inhibition of CD40-ligand-induced hIL-10 secretion” value (CLL cells) was 99.6 % inhibition, the “inhibition of CD40-ligand-induced hTNF-α secretion” value (CLL cells) was 89.6 % inhibition and the “cytokine production with antibody alone (agonistic activity)” value (normal B cells [1]; absence of CD40L) was “did not produce any of the cytokines above background levels”. The “inhibition of CD40L-induced MCP-1 secretion” value (normal B cells [1]; Donor 1) was 55.3 % inhibition, the “inhibition of CD40L-induced MIP-1β secretion” value (normal B cells [1]; Donor 1) was 54.4 % inhibition and the “inhibition of CD40L-induced hIL-6 secretion” value (normal B cells [1]; Donor 1) was 92.2 % inhibition. For the same substance, the “inhibition of CD40L-induced hIL-8 secretion” value (normal B cells [1]; Donor 1) was 98.2 % inhibition, the “inhibition of CD40L-induced hIL-10 secretion” value (normal B cells [1]; Donor 1) was 90.5 % inhibition and the “inhibition of CD40L-induced hTNF-α secretion” value (normal B cells [1]; Donor 1) was 92.8 % inhibition. The “inhibition of CD40L-induced MIP-1β secretion” value (normal B cells [1]; Donor 2) was 92 % inhibition, the “inhibition of CD40L-induced hIL-6 secretion” value (normal B cells [1]; Donor 2) was 99.9 % inhibition and the “inhibition of CD40L-induced hIL-8 secretion” value (normal B cells [1]; Donor 2) was 84.7 % inhibition. The “inhibition of CD40L-induced hTNF-α secretion” value (normal B cells [1]; Donor 2) was 97.4 % inhibition, the “inhibition of CD40L-induced MCP-1 secretion” value (normal B cells [1]; Donor 3) was 25.7 % inhibition and the “inhibition of CD40L-induced MIP-1β secretion” value (normal B cells [1]; Donor 3) was 92.5 % inhibition. The “inhibition of CD40L-induced hIL-6 secretion” value (normal B cells [1]; Donor 3) was 99.3 % inhibition, the “inhibition of CD40L-induced hIL-8 secretion” value (normal B cells [1]; Donor 3) was 99.5 % inhibition and the “inhibition of CD40L-induced hIL-10 secretion” value (normal B cells [1]; Donor 3) was 94.4 % inhibition. The “inhibition of CD40L-induced hTNF-α secretion” value (normal B cells [1]; Donor 3) was 98.5 % inhibition, the “CD40L-mediated effects on cPARP, Mcl-1, Bcl-xl, p-Akt, p-p38” value (normal human B cells) was “blocked these CD40L-mediated effects on normal B cells” and the “blockade of CD40L-promoted survival” value (B-CLL cells [2]) was “in each case, these effects were blocked”. The “phosphorylation of IKK α/β, ERK and Akt” value ([3]; 20 minutes, 1 μg/ml sCD40L, vs control IgG) was “significant inhibition of phosphorylation of IKK α/β, ERK, and Akt”, the “p38 MAPK activation” value ([3]; samples with constitutively activated p38 MAPK) was “did not significantly inhibit p38 MAPK activation” and the “Ki67+ proliferating cells (histology)” value ([4]; 5 days after a single dose) was “significantly reduced the number of Ki67^+ proliferating cells”. The “cleaved caspase 3 and cleaved PARP (histology)” value ([4]; 5 days after a single dose) was “increased the level of cleaved caspase 3 and cleaved PARP”, the tumor growth ([4]; first study, CHIR-12.12 1 and 10 mg/kg i.p. days 5, 12, 18, bortezomib 1 mg/kg i.v. days 5, 8, 12, 15) was “inhibited tumor growth at 15, 18, and 21 days post tumor implantation” and the “tumor volume, CHIR-12.12 in combination with bortezomib” value ([4]; second study, CHIR-12.12 1 mg/kg i.p. plus bortezomib 1 mg/kg i.v.) was “the efficacy observed was additive; also recorded: a tumor volume reduction was observed on days 13, 16, 20, 23, and 26”. The “effect on CD40 ligand-mediated proliferation of cancer cells” value [5] was “inhibiting in vitro CD40 ligand-mediated proliferation of cancer cells from NHL and CLL patients”, the “CD40L-induced phosphorylation of IKK α/β and ERK ½” value (B-CLL cells [6]; [8]) was “inhibited the CD40L-induced phosphorylation of IKK α/β and ERK ½” and the “rhsCD40L-enhanced phosphorylation of p38 MAPK” value (B-CLL cells [6]; [8]) was “blocked this effect”. For the same substance, the “CD40L activation of the AKT pathway (p-Akt)” value (B-CLL cells [6]; in a number of samples) was “blocked this effect”, the “binding to soluble CD40” value (soluble CD40) was “bind soluble CD40” and the tumor volume reduction (KMS-12-BM tumor; 1 mg/kg i.p. once a week for 4 weeks, P>0.05) was 32%. For the same substance, the tumor volume reduction (KMS-12-BM tumor; 10 mg/kg i.p. once a week for 4 weeks, P<0.05) was 35%, the “CD40L-induced production of VEGF” value (normal B cells [7]) was “inhibit CD40L-induced production of VEGF” and the “displacement of pre-bound CD40-ligand” value (cell-surface CD40) was “displace the pre-bound CD40-ligand; also recorded: can compete off CD40-ligand pre-bound to cell surface CD40”. For the same substance, the “prevention of CD40-ligand binding to cell-surface CD40” value (cell-surface CD40) was “prevent the binding of CD40-ligand to cell-surface CD40; also recorded: can prevent CD40-ligand binding”.
